# Patent publication US11497212B2, “Substituted thiophenyl uracils, salts thereof and the use thereof as herbicidal agents” (Syngenta Crop Protection AG, priority 2017, dated 2022)
# Assays:
# Type in all cases: in vivo
# Hordeum murinum = experiment: Herbicidal action post-emergence (greenhouse pot trial); details: application rate 20 g/ha, scored visually after about 3 weeks vs untreated controls
# Summary of the method: (§1)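 Percent herbicidal efficacy, assessed by eye about 3 weeks after spraying, compares treated with untreated plants. Treatment is a post-emergence spray at the one-leaf stage, using a WP or EC preparation plus 0.5% additive in 600 L/ha of water, at 80 g/ha or lower.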
# Alopecurus myosuroides = experiment: as above; details: application rate 20 g/ha, scored visually after about 3 weeks vs untreated controls
# Summary of the method: as §1
# Matricaria inodora = experiment: as above; details: application rate 20 g/ha, scored visually after about 3 weeks vs untreated controls
# Summary of the method: as §1
# Digitaria sanguinalis = experiment: as above; details: application rate 20 g/ha
# Summary of the method: as §1
# Veronica persica = experiment: as above; details: application rate 20 g/ha
# Summary of the method: as §1
# Abutilon theophrasti = experiment: as above; details: application rate 20 g/ha, scored visually after about 3 weeks vs untreated controls
# Summary of the method: as §1
# Polygonum convolvulus = experiment: as above; details: application rate 20 g/ha, scored visually after about 3 weeks vs untreated controls
# Summary of the method: as §1
# Setaria viridis = experiment: as above; details: application rate 20 g/ha, scored visually after about 3 weeks vs untreated controls
# Summary of the method: as §1
# Stellaria media = experiment: as above; details: application rate 20 g/ha, scored visually after about 3 weeks vs untreated controls
# Summary of the method: as §1
# Viola tricolor = experiment: as above; details: application rate 20 g/ha
# Summary of the method: as §1
# Amaranthus retroflexus = experiment: as above; details: application rate 20 g/ha, scored visually after about 3 weeks vs untreated controls
# Summary of the method: as §1
# Pharbitis purpurea = experiment: as above; details: application rate 20 g/ha
# Summary of the method: as §1
# Echinochloa crus-galli = experiment: as above; details: application rate 20 g/ha, scored visually after about 3 weeks vs untreated controls
# Summary of the method: as §1
# Triticum aestivum = experiment: Crop compatibility post-emergence (greenhouse pot trial); details: application rate 20 g/ha
# Summary of the method: (§2)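 Compatibility is expressed as visually scored percent injury, where 0% means no difference from untreated controls and 100% means dead plants, assessed about 3 weeks after a foliar spray at 600 L/ha with 0.5% additive on one-leaf-stage pot plants in sandy loam.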
# Glycine max = experiment: as above; details: application rate 5 g/ha
# Summary of the method: as §2
SMILES,Hordeum murinum (Efficacy in %) (Hordeum murinum) [%],Alopecurus myosuroides (Efficacy in %) (Alopecurus myosuroides) [%],Matricaria inodora (Efficacy in %) (Matricaria inodora) [%],Digitaria sanguinalis (Efficacy in %) (Digitaria sanguinalis) [%],Veronica persica (Efficacy in %) (Veronica persica) [%],Abutilon theophrasti (Efficacy in %) (Abutilon theophrasti) [%],Polygonum convolvulus (Efficacy in %) (Polygonum convolvulus) [%],Setaria viridis (Efficacy in %) (Setaria viridis) [%],Stellaria media (Efficacy in %) (Stellaria media) [%],Viola tricolor (Efficacy in %) (Viola tricolor) [%],Amaranthus retroflexus (Efficacy in %) (Amaranthus retroflexus) [%],Pharbitis purpurea (Efficacy in %) (Pharbitis purpurea) [%],Echinochloa crus-galli (Efficacy in %) (Echinochloa crus-galli) [%],Triticum aestivum (Efficacy in %) (Triticum aestivum) [%],Glycine max (Efficacy in %) (Glycine max) [%]
CC(C)C(Sc1cc(-n2c(=O)cc(C(F)(F)F)n(C)c2=O)c(F)cc1Cl)C(=O)OCC1CCCO1 (stereo not drawn) [I.6-71],80,80,100,100,100,100,100,100,100,100,100,100,90,20,
CC(C)CC(Sc1cc(-n2c(=O)cc(C(F)(F)F)n(C)c2=O)c(F)cc1Cl)C(=O)NCC1CCCO1 (stereo not drawn) [I.4-221],80,,100,100,100,100,100,100,80,100,100,100,80,,20
